What was measured:
[1] = tested on: Enterocloster clostridioformis; test: Antimicrobial activity against Clostridium clostridioforme NCTC 11224 by agar dilution method in presence of 5% laked sheep blood; format: functional
Bifidobacterium bifidum = test: Antimicrobial activity against Bifidobacterium bifidum JCM 1255 by agar dilution method in presence of 5% laked sheep blood; format: functional
Bacteroides fragilis [2] = test: Antimicrobial activity against Bacteroides fragilis GAI 0558 by agar dilution method in presence of 5% laked sheep blood; format: functional
[3] = tested on: Limosilactobacillus fermentum; test: Antimicrobial activity against Lactobacillus fermentum JCM 1173 by agar dilution method in presence of 5% laked sheep blood; format: functional
Capnocytophaga ochracea = test: Antimicrobial activity against Capnocytophaga ochracea GAI 5586 by agar dilution method in presence of 5% laked sheep blood; format: functional
Cutibacterium acnes = test: Antimicrobial activity against Propionibacterium acnes ATCC 11828 by agar dilution method in presence of 5% laked sheep blood; format: functional
Bacteroides fragilis [4] = test: Antimicrobial activity against Bacteroides fragilis GAI 5562 by agar dilution method in presence of 5% laked sheep blood; format: functional
[5] = Antimicrobial activity against Bifidobacterium adolescentis ATCC 15703 by agar dilution method in presence of 5% laked sheep blood; format: functional
[6] = Antimicrobial activity against Finegoldia magna ATCC 29328 by agar dilution method in presence of 5% laked sheep blood; format: functional
Bifidobacterium breve = test: Antimicrobial activity against Bifidobacterium breve ATCC 15700 by agar dilution method in presence of 5% laked sheep blood; format: functional
Prevotella bivia = test: Antimicrobial activity against Prevotella bivia ATCC 29303 by agar dilution method in presence of 5% laked sheep blood; format: functional; details: DSM 20514
[7] = tested on: Streptococcus intermedius; test: Antimicrobial activity against Streptococcus intermedius ATCC 27335 by agar dilution method in presence of 5% laked sheep blood; format: functional
[8] = tested on: Fusobacterium necrophorum; test: Antimicrobial activity against Fusobacterium necrophorum ATCC 25286 by agar dilution method in presence of 5% laked sheep blood; format: functional
Gemella morbillorum = test: Antimicrobial activity against Gemella morbillorum ATCC 27824 by agar dilution method in presence of 5% laked sheep blood; format: functional
[9] = Antimicrobial activity against Desulfovibrio piger DSM 749 by agar dilution method in presence of 5% laked sheep blood; format: functional, Desulfovibrio piger ATCC 29098
Bacteroides fragilis [10] = test: Antimicrobial activity against Bacteroides fragilis GAI 10150 by agar dilution method in presence of 5% laked sheep blood; format: functional
Campylobacter gracilis = test: Antimicrobial activity against Campylobacter gracilis JCM 8538 by agar dilution method in presence of 5% laked sheep blood; format: functional
[11] = tested on: Limosilactobacillus reuteri; test: Antimicrobial activity against Lactobacillus reuteri JCM 1112 by agar dilution method in presence of 5% laked sheep blood; format: functional
[12] = Antimicrobial activity against Parabacteroides distasonis ATCC 8503 by agar dilution method in presence of 5% laked sheep blood; format: functional
Prevotella intermedia = test: Antimicrobial activity against Prevotella intermedia ATCC 25611 by agar dilution method in presence of 5% laked sheep blood; format: functional
[13] = tested on: Bifidobacterium pseudolongum; test: Antimicrobial activity against Bifidobacterium pseudolongum ATCC 25526 by agar dilution method in presence of 5% laked sheep blood; format: functional
Bacteroides fragilis [14] = test: Antimicrobial activity against carbapenemase-producing Bacteroides fragilis GAI 30079 by agar dilution method in presence of 5% laked sheep blood; format: functional
Bacteroides fragilis [15] = test: Antimicrobial activity against Bacteroides fragilis NCTC 10581 by agar dilution method in presence of 5% laked sheep blood; format: functional
Parvimonas micra = test: Antimicrobial activity against Parvimonas micra VPI 5464-1 by agar dilution method in presence of 5% laked sheep blood; format: functional
[16] = tested on: Porphyromonas asaccharolytica; test: Antimicrobial activity against Porphyromonas asaccharolyticus ATCC 25260 by agar dilution method in presence of 5% laked sheep blood; format: functional; details: DSM 20707
Atopobium parvulum = test: Antimicrobial activity against Atopobium parvulum VPI 0546 by agar dilution method in presence of 5% laked sheep blood; format: functional; details: Lancefieldella parvula
Hoylesella oralis = test: Antimicrobial activity against Prevotella oralis ATCC 33269 by agar dilution method in presence of 5% laked sheep blood; format: functional
[17] = tested on: Bacteroides thetaiotaomicron; test: Antimicrobial activity against Bacteroides thetaiotaomicron ATCC 29741 by agar dilution method in presence of 5% laked sheep blood; format: functional
[18] = Antimicrobial activity against Bifidobacterium longum subsp. longum ATCC 15707 by agar dilution method in presence of 5% laked sheep blood; format: functional
Peptoniphilus indolicus = test: Antimicrobial activity against Peptoniphilus indolicus GAI 0915 by agar dilution method in presence of 5% laked sheep blood; format: functional
Veillonella parvula = test: Antimicrobial activity against Veillonella parvula ATCC 10790 by agar dilution method in presence of 5% laked sheep blood; format: functional
Prevotella oris = test: Antimicrobial activity against Prevotella oris ATCC 33573 by agar dilution method in presence of 5% laked sheep blood; format: functional; details: Segatella oris
[19] = tested on: Peptoniphilus asaccharolyticus; test: Antimicrobial activity against Peptoniphilus asaccharolyticus WAL 3218 by agar dilution method in presence of 5% laked sheep blood; format: functional
Bacteroides fragilis [20] = test: Antimicrobial activity against carbapenemase-producing Bacteroides fragilis GAI 30144 by agar dilution method in presence of 5% laked sheep blood; format: functional
[21] = tested on: Desulfovibrio desulfuricans; test: Antimicrobial activity against Desulfovibrio desulfuricans ATCC 29577 by agar dilution method in presence of 5% laked sheep blood; format: functional
[22] = tested on: Campylobacter ureolyticus; test: Antimicrobial activity against Bacteroides ureolyticus NCTC 10941 by agar dilution method in presence of 5% laked sheep blood; format: functional
Anaerococcus prevotii = test: Antimicrobial activity against Anaerococcus prevotii ATCC 9321 by agar dilution method in presence of 5% laked sheep blood; format: functional
Bacteroides uniformis = test: Antimicrobial activity against Bacteroides uniformis ATCC 8492 by agar dilution method in presence of 5% laked sheep blood; format: functional
Phocaeicola vulgatus = test: Antimicrobial activity against Bacteroides vulgatus GAI 0673 by agar dilution method in presence of 5% laked sheep blood; format: functional
Bacteroides fragilis [23] = test: Antimicrobial activity against Bacteroides fragilis ATCC 25285 by agar dilution method in presence of 5% laked sheep blood; format: functional; details: NCTC 9343
[24] = tested on: Bacteroides heparinolyticus; test: Antimicrobial activity against Prevotella heparinolytica ATCC 35895 by agar dilution method in presence of 5% laked sheep blood; format: functional
Bacteroides ovatus = test: Antimicrobial activity against Bacteroides ovatus ATCC 8483 by agar dilution method in presence of 5% laked sheep blood; format: functional
Fusobacterium varium = test: Antimicrobial activity against Fusobacterium varium ATCC 8501 by agar dilution method in presence of 5% laked sheep blood; format: functional
Thomasclavelia ramosa = test: Antimicrobial activity against Clostridium ramosum ATCC 25582 by agar dilution method in presence of 5% laked sheep blood; format: functional
Lactobacillus salivarius = test: Antimicrobial activity against Lactobacillus salivarius subsp. salivarius JCM 1231 by agar dilution method in presence of 5% laked sheep blood; format: functional; details: Ligilactobacillus salivarius
[25] = tested on: Propionibacterium granulosum; test: Antimicrobial activity against Propionibacterium granulosum ATCC 25564 by agar dilution method in presence of 5% laked sheep blood; format: functional; details: Cutibacterium granulosum
Bilophila wadsworthia = test: Antimicrobial activity against Bilophila wadsworthia WAL 7959 by agar dilution method in presence of 5% laked sheep blood; format: functional

Measured: MIC

C[C@@H](O)[C@H]1C(=O)N2C(C(=O)O)=C(S[C@@H]3CN[C@H](C(=O)N(C)C)C3)[C@H](C)[C@H]12 [MEROPENEM]
> 128 µg/mL: Bacteroides fragilis [14] | Bacteroides fragilis [20]
0.125 µg/mL: Bacteroides fragilis [4] | [5] | [6] | [12] | Parvimonas micra | [21] | Bacteroides uniformis | Phocaeicola vulgatus
0.03 µg/mL: Capnocytophaga ochracea | [9] | Hoylesella oralis | Veillonella parvula | Bilophila wadsworthia
0.06 µg/mL: Bifidobacterium bifidum | Campylobacter gracilis | Prevotella intermedia | Prevotella oris | [24]
0.5 µg/mL: [11] | Atopobium parvulum | [18]
0.05 µg/mL: Bacteroides fragilis [2]
≤ 0.015 µg/mL: [8] | Gemella morbillorum | [16] | Peptoniphilus indolicus | [19] | [22]
2 µg/mL: Cutibacterium acnes | Bacteroides fragilis [10]
1 µg/mL: Bifidobacterium breve | Thomasclavelia ramosa | Lactobacillus salivarius | [25]
0.25 µg/mL: all other assays above

CC(=N)N1CC[C@H](SC2=C(C(=O)O)N3C(=O)[C@H]([C@@H](C)O)[C@H]3C2)C1
0.03 µg/mL: [3] | [11] | [16]
8 µg/mL: Bacteroides fragilis [10]
4 µg/mL: Fusobacterium varium
1 µg/mL: [12] | [18]
> 128 µg/mL: Bacteroides fragilis [14] | Bacteroides fragilis [20]
0.125 µg/mL: Capnocytophaga ochracea | Cutibacterium acnes | [5] | [8] | [9] | Parvimonas micra | Peptoniphilus indolicus | Veillonella parvula | Anaerococcus prevotii | Phocaeicola vulgatus | [24] | [25]
≤ 0.015 µg/mL: Gemella morbillorum
0.06 µg/mL: Bifidobacterium bifidum | Prevotella intermedia | Hoylesella oralis | Prevotella oris
0.5 µg/mL: Bacteroides fragilis [2] | Bifidobacterium breve | Prevotella bivia | [17] | [21] | Bacteroides ovatus | Bilophila wadsworthia
0.25 µg/mL: all other assays above

Reference: ChEMBL document CHEMBL1275576, “In vitro activity of tomopenem (CS-023/RO4908463) against anaerobic bacteria” (Antimicrob Agents Chemother, 2009)
